Data set [1] concerns Botrytis cinerea. The data set is described as follows: Preventive effect against cucumber gray mold (mycelium inoculation). The data set is classed as in vivo. Conditions: 48 h, test solution A 500 ppm, 2 days. How it is done: (§1) Compounds of the present invention were dissolved in a solvent for emulsion (a mixture of Sorpol (registered trademark) 3005XL (manufactured by Toho Chemical Industry Co., Ltd.): N-methylpyrrolidone:Solvesso (registered trademark) 200 (manufactured by ExxonMobil Chemical) in a ratio of 1:5:2) to prepare 20% emulsifiable concentrates. Then, distilled water was added to dilute the emulsifiable concentrates to the predetermined concentration (500 ppm), and the obtained solutions were used in the following Test Examples 1 to 7. Cucumber (cultivar: Sagami Hanjiro) was planted in 90 cm^3 plastic pots, and in the seed leaf stage, 5 ml per pot of test solutions A of the compounds of the present invention were applied. On the next day, the pots were put in a plastic container, and agar blocks (diameter: 5 mm) containing Botrytis cinerea preliminarily cultivated in a PDA medium were inoculated to the seed leaves of the cucumber treated with the solutions. After the inoculation, the plastic container was covered with a plastic sheet and humidified, and placed at 20° C. for 2 days, whereupon the proportion of the formed lesion in the inoculated leaves was measured to calculate the control value in accordance with the same formula as in Test Example 1. Here, the test was carried out in duplicate.

The test system of data set [2] is Botrytis cinerea. Kind of data set: Preventive effect against cucumber gray mold (spore inoculation). The data set is classed as in vivo. Conditions: 72 h, cucumber leaves, test solution A 500 ppm, 3 days. Here is the method: Compounds of the present invention were dissolved in a solvent for emulsion (a mixture of Sorpol (registered trademark) 3005XL (manufactured by Toho Chemical Industry Co., Ltd.): N-methylpyrrolidone:Solvesso (registered trademark) 200 (manufactured by ExxonMobil Chemical) in a ratio of 1:5:2) to prepare 20% emulsifiable concentrates. Then, distilled water was added to dilute the emulsifiable concentrates to the predetermined concentration (500 ppm), and the obtained solutions were used in the following Test Examples 1 to 7. Cucumber (cultivar: Sagami Hanjiro) was planted in 90 cm^3 plastic pots, and in the seed leaf stage, 5 ml per pot of test solutions A of the compounds of the present invention were applied. After drying in air, the treated leaves were cut and put in plastic containers. 30 μl of a mixture of a suspension of conidium of Botrytis cinerea and a dissolved PDA medium in a ratio of 1:1 was dropped on each treated leaf and inoculated. After the inoculation, the plastic containers were placed at 20° C. in humid conditions for 3 days, and the proportion of the formed lesion in the inoculated leaves was measured to calculate the control value in accordance with the same formula as in Test Example 1. Here, the test was carried out in duplicate.

The next data set relates to Sclerotinia sclerotiorum. The data set is described as follows: Preventive effect against cucumber stem rot. The data set is classed as in vivo. Conditions: 48 h, test solution A 500 ppm, 2 days. How it is done:
as §1, with “After drying in air,” for “On the next day,”, “Sclerotinia sclerotiorum” for “Botrytis cinerea”

For data set [3], the system named is Phaeosphaeria nodorum (synonym: Septoria nodorum). The data set is described as follows: Preventive effect against wheat glume blotch. The data set is classed as in vivo. Conditions: Parastagonospora nodorum, 192 h, test solution A 500 ppm, 2 + 6 days. How it is done: (§2) Compounds of the present invention were dissolved in a solvent for emulsion (a mixture of Sorpol (registered trademark) 3005XL (manufactured by Toho Chemical Industry Co., Ltd.): N-methylpyrrolidone:Solvesso (registered trademark) 200 (manufactured by ExxonMobil Chemical) in a ratio of 1:5:2) to prepare 20% emulsifiable concentrates. Then, distilled water was added to dilute the emulsifiable concentrates to the predetermined concentration (500 ppm), and the obtained solutions were used in the following Test Examples 1 to 7. To wheat (cultivar: Haruyutaka) in 1.3-leaf stage planted in 90 cm^3 plastic pots, 5 ml per pot of test solutions A of the compounds of the present invention were applied. On the next day, a suspension of conidium of Phaeosphaeria nodorum synonym: Septoria nodorum) was spray-inoculated to the wheat, and the pots were placed in an inoculation chamber at 20° C. under a humidity of 100% for 2 days. Then, the pots were placed in an air-conditioned greenhouse (20° C.) for 6 days. The proportion of the formed lesion in the inoculated leaves was measured to calculate the control value in accordance with the same formula as in Test Example 1. Here, the test was carried out in duplicate.

In the next data set the test system is Puccinia recondita. Kind of data set: Preventive effect against wheat brown leaf rust. The data set is classed as in vivo. Conditions: 216 h, test solution A 500 ppm, 1 + 8 days. How it is done: as §2, with “Norin-61-go)” for “Haruyutaka)”, “spore” for “conidium”, “Puccinia recondita” for “Phaeosphaeria nodorum synonym: Septoria nodorum)”, “1 day.” for “2 days.”, “8” for “6”

Another data set has as its system Meloidogyne incognita. The data set is described as follows: Preventive effect on Meloidogyne incognita (garden balsam seedlings, root knot). Type of data set: in vivo. Conditions: 504 h, test solution B 100 ppm, 1 ml per seedling, 3 weeks, read-out: efficacy (damage degree, root knot, relative to non-treated plot). How it is done:
Compounds of the present invention were dissolved in dimethylsulfoxide to prepare 1% solutions. Then, distilled water was added to dilute the solutions to the predetermined concentration (100 ppm), and the obtained solutions were used in the following Test Examples 8 to 12. 1 ml per seedling of test solutions B of the compounds of the present invention were treated to the bases of garden balsam seedlings (about 2 weeks after budding) planted in a cell tray of which each cell was filled with 10 g of soil. 1 Hour after the application, 1 ml per cell of water containing Meloidogyne incognita 2 L larvae (100 2 L larvae/1 ml) was applied to the bases. The tray was placed in a greenhouse for 3 weeks, and the root knot level formed on the root was determined in accordance with the following damage index and the damage degree to calculate the efficacy (%) relative to the non-treated plot in accordance with the following formula. <Damage Index> 0: No knot observed. 1: Knot observed on a part of the root system. 2: Knot observed on the entire root system. 3: Large knot observed. 4: Large knot observed on the entire root system. [Damage degree]=[Σ(damage index×number of seedlings at each index)/(4×number of seedlings investigated)]×100 Efficacy(%)=[1−(damage degree in treated plot/damage degree in non-treated plot)]×100

SMILES strings stand for the structures.

For the compound `CON=C(CN(C(C)=O)C(=O)c1ccccc1C(F)(F)F)c1ncc(Cl)cc1Cl` [4-013], the pest or weed control at 500 µg/mL with Botrytis cinerea [1], in the data set on Botrytis cinerea [2] and with Sclerotinia sclerotiorum was no less than 70% each time.

Consider `CC(C)(C)ON=C(CNC(=O)c1nccnc1C(F)(F)F)c1ncc(Cl)cc1Cl` (single isomer, unassigned) [9-006, N-[2-(3,5-dichloropyridin-2-yl)-2-(tert-butoxyimino)ethyl]-3-(trifluoromethyl)pyrazine-2-carboxamide], for which the pest or weed control at 500 µg/mL in the data set with Botrytis cinerea [1] and with Sclerotinia sclerotiorum was no less than 70% in each case.

Take `CON=C(CNC(=S)c1ccccc1C(F)(F)F)c1ncc(Br)cc1Cl` [Compound No. 5-001, N-[2-(5-bromo-3-chloropyridin-2-yl)-2-(methoxyimino)ethyl]-2-(trifluoromethyl)benzthioamide]: the pest or weed control at 500 µg/mL (in data set [3]; in the data set with Botrytis cinerea [1]; in the data set with Botrytis cinerea [2]; in the data set with Puccinia recondita; with Sclerotinia sclerotiorum) was no less than 70% in each case.

In the case of `CON=C(CN(SC(Cl)(Cl)Cl)C(=O)c1ccccc1C(F)(F)F)c1ncc(Cl)cc1Cl` [4-015], the pest or weed control at 500 µg/mL with Botrytis cinerea [1], in the data set on Botrytis cinerea [2] and in the data set with Sclerotinia sclerotiorum was no less than 70% in each case.

On to `CCO/N=C(/CNC(=O)c1ccccc1C(F)(F)F)c1ncc(Cl)cc1Cl` [Compound No. 2-120, (Z)—N-[2-(3,5-dichloropyridin-2-yl)-2-(ethoxyimino)ethyl]-2-(trifluoromethyl)benzamide], for which the melting point fell in the range of 84 to 86 °C. Further, the pest or weed control at 500 µg/mL in data set [3] was no less than 70%. In the data set with Botrytis cinerea [1], this compound displayed a pest or weed control at 500 µg/mL of no less than 70%. Also, in the data set on Botrytis cinerea [2], the pest or weed control at 500 µg/mL was no less than 70%. Besides, in the data set on Meloidogyne incognita, the pest or weed control at 100 µg/mL was no less than 50%. Further, the pest or weed control at 500 µg/mL with Puccinia recondita was no less than 70%.

The compound `CON=C(CN(C(=O)c1c(C(F)(F)F)nn(C)c1F)C1CC1)c1ncc(Cl)cc1Cl` [Compound No. 17-009, N-cyclopropyl-N-[2-(3,5-dichloropyridin-2-yl)-2-(methoxyimino)ethyl]-5-fluoro-1-methyl-3-trifluoromethyl-1H-pyrazole-4-carboxamide] gave a melting point of 95 to 97 °C. Moreover, the pest or weed control at 500 µg/mL in data set [3] is no less than 70%. This compound registered a pest or weed control at 500 µg/mL in the data set with Botrytis cinerea [2] of no less than 70%. The compound further yielded a pest or weed control at 500 µg/mL in the data set with Sclerotinia sclerotiorum of no less than 70%.

Regarding `CCO/N=C(\c1ncc(Cl)cc1Cl)[C@H](C)NC(=O)c1ccccc1C(F)(F)F` [2-124, (S)—N-[2-(3,5-dichloropyridin-2-yl)-2-[(Z)-ethoxyimino]-1-methylethyl]-2-(trifluoromethyl)benzamide], the pest or weed control at 500 µg/mL (in data set [3]; in the data set on Botrytis cinerea [1]; in the data set with Botrytis cinerea [2]; with Puccinia recondita; in the data set with Sclerotinia sclerotiorum) was no less than 70% in each case.

On to `CC(C)ON=C(CNC(=O)c1ccccc1C(F)(F)F)c1ncc(Cl)nc1Cl` [24-001], for which the pest or weed control at 500 µg/mL in the data set on Botrytis cinerea [1], in the data set with Botrytis cinerea [2] and in the data set with Sclerotinia sclerotiorum was no less than 70% each time.

Turning to `CON=C(c1ncc(Cl)cc1Cl)C(C)NC(=O)c1ccccc1C(F)(F)F` (centres unmarked) [Compound No. 2-115, N-[2-(3,5-dichloropyridin-2-yl)-2-methoxyimino-1-methylethyl]-2-(trifluoromethyl)benzamide], the pest or weed control at 500 µg/mL (in data set [3]; in the data set on Botrytis cinerea [1]; with Botrytis cinerea [2]; in the data set with Puccinia recondita; with Sclerotinia sclerotiorum) was no less than 70% each time. Moreover, the pest or weed control at 100 µg/mL in the data set with Meloidogyne incognita is no less than 50%.

Compound `CO/N=C(\c1ncc(Cl)cc1Cl)C(C)NC(=O)c1ccccc1C(F)(F)F` (centres unmarked) [Compound No. 2-117, (Z)—N-[2-(3,5-dichloropyridin-2-yl)-2-methoxyimino-1-methylethyl]-2-(trifluoromethyl)benzamide] returned a melting point of 104 to 105 °C. In the data set with Botrytis cinerea [1], the pest or weed control at 500 µg/mL was no less than 70%. In addition, in the data set with Botrytis cinerea [2], the pest or weed control at 500 µg/mL was no less than 70%. Besides, in the data set with Meloidogyne incognita, the pest or weed control at 100 µg/mL is no less than 50%. In addition, the pest or weed control at 500 µg/mL in the data set with Puccinia recondita is no less than 70%.

As to `CC(O/N=C(/CNC(=O)c1ccccc1C(F)(F)F)c1ncc(Cl)cc1Cl)c1ccc(F)cc1` (centres unmarked) [Compound No. 2-174, (Z)—N-[2-(3,5-dichloropyridin-2-yl)-2-[1-(4-fluorophenyl)ethoxyimino]ethyl]-2-(trifluoromethyl)benzamide], the pest or weed control at 100 µg/mL in the data set with Meloidogyne incognita was no less than 50%. Besides, the pest or weed control at 500 µg/mL in the data set with Puccinia recondita is no less than 70%.

Compound `CCCO/N=C(/CNC(=O)c1ccccc1C(F)(F)F)c1ncc(Cl)cc1Cl` [Compound No. 2-126, (Z)—N-[2-(3,5-dichloropyridin-2-yl)-2-(propoxyimino)ethyl]-2-(trifluoromethyl)benzamide] came in with a melting point of 80 to 83 °C. Further, the pest or weed control at 100 µg/mL with Meloidogyne incognita was no less than 50%. Moreover, the pest or weed control at 500 µg/mL in the data set with Puccinia recondita is no less than 70%.

As a reminder, the melting point is the temperature, or range, at which the solid turns liquid.

Source of the values: patent US9434684B2, “Oxime-substituted amide compound and pest control agent” (Nissan Chemical Industries, Ltd., priority 2012, dated 2016).
